In patent US5393869A, “Parathyroid hormone derivatives” (Takeda Chemical Industries, Ltd., priority 1990, dated 1995):

Molecular target: T1, PTH receptor (Mus musculus, UniProt P41593)
T1 construct: a mouse cranial bone-derived osteoblast-like cell strain, MC3T3-EI cells, cultivated on a 96-well multiplate; endogenous in cells; host or cells: MC3T3-E1 mouse osteoblast-like cells
T1 sequence (P41593 27-591): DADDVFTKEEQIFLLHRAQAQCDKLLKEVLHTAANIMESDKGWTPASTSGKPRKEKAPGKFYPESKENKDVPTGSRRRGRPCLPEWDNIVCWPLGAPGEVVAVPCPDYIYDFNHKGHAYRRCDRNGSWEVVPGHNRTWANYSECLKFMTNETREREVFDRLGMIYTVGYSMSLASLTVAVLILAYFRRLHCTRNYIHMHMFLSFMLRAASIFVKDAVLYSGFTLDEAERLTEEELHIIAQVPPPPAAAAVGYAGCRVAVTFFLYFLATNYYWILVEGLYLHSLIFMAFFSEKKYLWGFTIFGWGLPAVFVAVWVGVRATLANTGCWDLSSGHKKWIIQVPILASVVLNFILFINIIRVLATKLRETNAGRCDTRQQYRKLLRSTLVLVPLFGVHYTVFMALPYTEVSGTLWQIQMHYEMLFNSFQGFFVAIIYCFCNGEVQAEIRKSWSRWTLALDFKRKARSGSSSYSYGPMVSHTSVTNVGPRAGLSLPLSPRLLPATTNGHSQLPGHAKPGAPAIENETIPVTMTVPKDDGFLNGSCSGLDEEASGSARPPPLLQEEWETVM
Assay: cAMP production by PTH (1-34) analogues in MC3T3-EI osteoblast-like cells
Type: cell-based
Details: cAMP production, 0.01-100 nM analogue, room temperature 30 minutes, hPTH(1-34) = 1.00
Description: The biological activity of the peptide analogues was evaluated by a modified version of the method reported by Shigeno et al. in The Journal of Biological Chemistry 263, 18369-18377 (1988). A culture solution (Hank's solution, containing 20 mM N-2-hydroxyethylpiperazine-N'-2-ethanesulfonic acid (HEPES), 0.1% bovine serum albumin and 0.5 mM isobutylmethyl-xanthine) containing 0.01, 0.1, 1, 10 or 100 nM analogue was added in an amount of 100 μto a mouse cranial bone-derived osteoblast-like cell strain, MC3T3-EI cells, cultivated on a 96-well multiplate (Nunclon, Nunc), followed by reaction at room temperature for 30 minutes. After addition of 100 μof 0.2N hydrochloric acid, the mixture was immersed in boiling water for 2.5 minutes, and cyclic adenosine monophosphate (cAMP) produced by a PTH receptor was extracted from the cells. The total cAMP in the culture solution and the cells was assayed using a commercial radioimmunoassay kit (cyclic AMP [^125 I] kit "Du Pont-Daiichi", Daiichi Kagaku Yakuhin).

| Biological Activity (Represented by Relative Activity to hPTH(1-34)) | SMILES |
| --- | --- |
| 1.0 | CC[C@H](C)[C@H](NC(=O)[C@H](CCC(=O)O)NC(=O)[C@H](CO)NC(=O)[C@@H](NC(=O)[C@@H](N)CO)C(C)C)C(=O)N[C@@H](CCC(N)=O)C(=O)N[C@@H](CC(C)C)C(=O)N[C@@H](CCSC)C(=O)N[C@@H](Cc1c[nH]cn1)C(=O)N[C@@H](CC(N)=O)C(=O)N[C@@H](CC(C)C)C(=O)NCC(=O)N[C@@H](CCCCN)C(=O)N[C@@H](Cc1c[nH]cn1)C(=O)N[C@@H](CC(C)C)C(=O)N[C@@H](CC(N)=O)C(=O)N[C@@H](CO)C(=O)N[C@@H](CCSC)C(=O)N[C@@H](CCC(=O)O)C(=O)N[C@@H](CCCNC(=N)N)C(=O)N[C@H](C(=O)N[C@@H](CCC(=O)O)C(=O)N[C@@H](Cc1c[nH]c2ccccc12)C(=O)N[C@@H](CC(C)C)C(=O)N[C@@H](Cc1c[nH]cn1)C(=O)N[C@@H](CCCCN)C(=O)N[C@@H](CCCCN)C(=O)N[C@@H](CC(C)C)C(=O)N[C@@H](CCC(N)=O)C(=O)N[C@@H](CC(=O)O)C(=O)N[C@H](C(=O)N[C@@H](Cc1c[nH]cn1)C(=O)N[C@@H](CC(N)=O)C(=O)N[C@@H](Cc1ccccc1)C(=O)O)C(C)C)C(C)C [[His^25] hPTH (1-34), (His^25)hPTH(1-34)] |
| 0.9 | CC[C@H](C)[C@H](NC(=O)[C@H](CCC(=O)O)NC(=O)[C@H](CO)NC(=O)[C@@H](NC(=O)[C@@H](N)CO)C(C)C)C(=O)N[C@@H](CCC(N)=O)C(=O)N[C@@H](CC(C)C)C(=O)N[C@@H](CCSC)C(=O)N[C@@H](Cc1c[nH]cn1)C(=O)N[C@@H](CC(N)=O)C(=O)N[C@@H](CC(C)C)C(=O)NCC(=O)N[C@@H](CCCCN)C(=O)N[C@@H](Cc1c[nH]cn1)C(=O)N[C@@H](CC(C)C)C(=O)N[C@@H](CC(N)=O)C(=O)N[C@@H](CO)C(=O)N[C@@H](CCSC)C(=O)N[C@@H](CCC(=O)O)C(=O)N[C@@H](CCCNC(=N)N)C(=O)N[C@H](C(=O)N[C@@H](CCC(=O)O)C(=O)N[C@@H](Cc1c[nH]c2ccccc12)C(=O)N[C@@H](CC(C)C)C(=O)N[C@@H](CCCNC(=N)N)C(=O)N[C@@H](Cc1c[nH]cn1)C(=O)N[C@@H](CCCCN)C(=O)N[C@@H](CC(C)C)C(=O)N[C@@H](CCC(N)=O)C(=O)N[C@@H](CC(=O)O)C(=O)N[C@H](C(=O)N[C@@H](Cc1c[nH]cn1)C(=O)N[C@@H](CC(N)=O)C(=O)N[C@@H](Cc1ccccc1)C(N)=O)C(C)C)C(C)C [[His^26] hPTH (1-34)NH2, (His^26)hPTH(1-34(NH2] |
| 0.5 | CC[C@H](C)[C@H](NC(=O)[C@H](CCC(=O)O)NC(=O)[C@H](CO)NC(=O)[C@@H](NC(=O)[C@@H](N)CO)C(C)C)C(=O)N[C@@H](CCC(N)=O)C(=O)N[C@@H](CC(C)C)C(=O)N[C@@H](CC(C)C)C(=O)N[C@@H](Cc1c[nH]cn1)C(=O)N[C@@H](CC(N)=O)C(=O)N[C@@H](CC(C)C)C(=O)NCC(=O)N[C@@H](CCCCN)C(=O)N[C@@H](Cc1c[nH]cn1)C(=O)N[C@@H](CC(C)C)C(=O)N[C@@H](CC(N)=O)C(=O)N[C@@H](CO)C(=O)N[C@@H](CCSC)C(=O)N[C@@H](CCC(=O)O)C(=O)N[C@@H](CCCNC(=N)N)C(=O)N[C@H](C(=O)N[C@@H](CCC(=O)O)C(=O)N[C@@H](Cc1c[nH]c2ccccc12)C(=O)N[C@@H](CC(C)C)C(=O)N[C@@H](CCCNC(=N)N)C(=O)N[C@@H](CCCCN)C(=O)N[C@@H](CCCCN)C(=O)N[C@@H](CC(C)C)C(=O)N[C@@H](CCC(N)=O)C(=O)N[C@@H](CC(=O)O)C(=O)N[C@H](C(=O)N[C@@H](Cc1c[nH]cn1)C(=O)N[C@@H](CC(N)=O)C(=O)N[C@@H](Cc1ccccc1)C(N)=O)C(C)C)C(C)C [[Leu^8] hPTH (1-34)NH2, (Leu^8)hPTH(1-34)NH2] |
| 0.4 | CC[C@H](C)[C@H](NC(=O)[C@H](CCC(=O)O)NC(=O)[C@H](CO)NC(=O)[C@@H](NC(=O)[C@@H](N)CO)C(C)C)C(=O)N[C@@H](CCC(N)=O)C(=O)N[C@@H](CC(C)C)C(=O)N[C@@H](CCSC)C(=O)N[C@@H](Cc1c[nH]cn1)C(=O)N[C@@H](CC(N)=O)C(=O)N[C@@H](CC(C)C)C(=O)NCC(=O)N[C@@H](CCCCN)C(=O)N[C@@H](Cc1c[nH]cn1)C(=O)N[C@@H](CC(C)C)C(=O)N[C@@H](CC(N)=O)C(=O)N[C@@H](CO)C(=O)N[C@@H](CC(C)C)C(=O)N[C@@H](CCC(=O)O)C(=O)N[C@@H](CCCNC(=N)N)C(=O)N[C@H](C(=O)N[C@@H](CCC(=O)O)C(=O)N[C@@H](Cc1c[nH]c2ccccc12)C(=O)N[C@@H](CC(C)C)C(=O)N[C@@H](CCCNC(=N)N)C(=O)N[C@@H](CCCCN)C(=O)N[C@@H](CCCCN)C(=O)N[C@@H](CC(C)C)C(=O)N[C@@H](CCC(N)=O)C(=O)N[C@@H](CC(=O)O)C(=O)N[C@H](C(=O)N[C@@H](Cc1c[nH]cn1)C(=O)N[C@@H](CC(N)=O)C(=O)N[C@@H](Cc1ccccc1)C(=O)O)C(C)C)C(C)C [[Leu^18] hPTH (1-34), (Leu^18)hPTH(1-34)] |
| 1.2 | CC[C@H](C)[C@H](NC(=O)[C@H](CCC(=O)O)NC(=O)[C@H](CO)NC(=O)[C@@H](NC(=O)[C@@H](N)CO)C(C)C)C(=O)N[C@@H](CCC(N)=O)C(=O)N[C@@H](CC(C)C)C(=O)N[C@@H](CCSC)C(=O)N[C@@H](Cc1c[nH]cn1)C(=O)N[C@@H](CC(N)=O)C(=O)N[C@@H](CC(C)C)C(=O)NCC(=O)N[C@@H](CCCCN)C(=O)N[C@@H](Cc1c[nH]cn1)C(=O)N[C@@H](CC(C)C)C(=O)N[C@@H](CC(N)=O)C(=O)N[C@@H](CO)C(=O)N[C@@H](CCSC)C(=O)N[C@@H](CCC(=O)O)C(=O)N[C@@H](CCCNC(=N)N)C(=O)N[C@H](C(=O)N[C@@H](CCC(=O)O)C(=O)N[C@@H](Cc1c[nH]c2ccccc12)C(=O)N[C@@H](CC(C)C)C(=O)N[C@@H](CCCNC(=N)N)C(=O)N[C@@H](CCCCN)C(=O)N[C@@H](CC(C)C)C(=O)N[C@@H](CC(C)C)C(=O)N[C@@H](CCC(N)=O)C(=O)N[C@@H](CC(=O)O)C(=O)N[C@H](C(=O)N[C@@H](Cc1c[nH]cn1)C(=O)N[C@@H](CC(N)=O)C(=O)N[C@@H](Cc1ccccc1)C(=O)O)C(C)C)C(C)C [[Leu^27] hPTH (1-34), (Leu^27)hPTH(1-34)] |
| 1.1 | CC[C@H](C)[C@H](NC(=O)[C@H](CCC(=O)O)NC(=O)[C@H](CO)NC(=O)[C@@H](NC(=O)[C@@H](N)CO)C(C)C)C(=O)N[C@@H](CCC(N)=O)C(=O)N[C@@H](CC(C)C)C(=O)N[C@@H](CCSC)C(=O)N[C@@H](Cc1c[nH]cn1)C(=O)N[C@@H](CC(N)=O)C(=O)N[C@@H](CCCCN)C(=O)NCC(=O)N[C@@H](CCCCN)C(=O)N[C@@H](Cc1c[nH]cn1)C(=O)N[C@@H](CC(C)C)C(=O)N[C@@H](CC(N)=O)C(=O)N[C@@H](CO)C(=O)N[C@@H](CCSC)C(=O)N[C@@H](CCC(=O)O)C(=O)N[C@@H](CCCNC(=N)N)C(=O)N[C@H](C(=O)N[C@@H](CCC(=O)O)C(=O)N[C@@H](Cc1c[nH]c2ccccc12)C(=O)N[C@@H](CC(C)C)C(=O)N[C@@H](CCCNC(=N)N)C(=O)N[C@@H](CCCCN)C(=O)N[C@@H](CCCCN)C(=O)N[C@@H](CC(C)C)C(=O)N[C@@H](CCC(N)=O)C(=O)N[C@@H](CC(=O)O)C(=O)N[C@H](C(=O)N[C@@H](Cc1c[nH]cn1)C(=O)N[C@@H](CC(N)=O)C(=O)N[C@@H](Cc1ccccc1)C(N)=O)C(C)C)C(C)C [[Lys^11] hPTH (1-34)NH2, (Lys^11)hPTH(1-34)NH2] |
| 1.1 | CC[C@H](C)[C@H](NC(=O)[C@H](CCC(=O)O)NC(=O)[C@H](CO)NC(=O)[C@@H](NC(=O)[C@@H](N)CO)C(C)C)C(=O)N[C@@H](CCC(N)=O)C(=O)N[C@@H](CC(C)C)C(=O)N[C@@H](CCSC)C(=O)N[C@@H](Cc1c[nH]cn1)C(=O)N[C@@H](CC(N)=O)C(=O)N[C@@H](Cc1ccccc1)C(=O)NCC(=O)N[C@@H](CCCCN)C(=O)N[C@@H](Cc1c[nH]cn1)C(=O)N[C@@H](CC(C)C)C(=O)N[C@@H](CC(N)=O)C(=O)N[C@@H](CO)C(=O)N[C@@H](CCSC)C(=O)N[C@@H](CCC(=O)O)C(=O)N[C@@H](CCCNC(=N)N)C(=O)N[C@H](C(=O)N[C@@H](CCC(=O)O)C(=O)N[C@@H](Cc1c[nH]c2ccccc12)C(=O)N[C@@H](CC(C)C)C(=O)N[C@@H](CCCNC(=N)N)C(=O)N[C@@H](CCCCN)C(=O)N[C@@H](CCCCN)C(=O)N[C@@H](CC(C)C)C(=O)N[C@@H](CCC(N)=O)C(=O)N[C@@H](CC(=O)O)C(=O)N[C@H](C(=O)N[C@@H](Cc1c[nH]cn1)C(=O)N[C@@H](CC(N)=O)C(=O)N[C@@H](Cc1ccccc1)C(=O)O)C(C)C)C(C)C [[Phe^11] hPTH (1-34), (Phe^11)hPTH(1-34)] |
